Experimental data published in paper PMC3699521, “ZrFsy1, a High-Affinity Fructose/H^+ Symporter from Fructophilic Yeast Zygosaccharomyces rouxii” (PLoS ONE, 2013).

Target: T1, ZrFsy1 (Zygosaccharomyces rouxii, UniProt C5DSI4)
T1 construct: gene ZYRO0C00374g; full length, 564 residues, C-terminal GFP tag, multicopy plasmid pZRS1-S (own promoter), expressed in S. cerevisiae hxt-null EBY.VW4000
T1 sequence (C5DSI4 1-564): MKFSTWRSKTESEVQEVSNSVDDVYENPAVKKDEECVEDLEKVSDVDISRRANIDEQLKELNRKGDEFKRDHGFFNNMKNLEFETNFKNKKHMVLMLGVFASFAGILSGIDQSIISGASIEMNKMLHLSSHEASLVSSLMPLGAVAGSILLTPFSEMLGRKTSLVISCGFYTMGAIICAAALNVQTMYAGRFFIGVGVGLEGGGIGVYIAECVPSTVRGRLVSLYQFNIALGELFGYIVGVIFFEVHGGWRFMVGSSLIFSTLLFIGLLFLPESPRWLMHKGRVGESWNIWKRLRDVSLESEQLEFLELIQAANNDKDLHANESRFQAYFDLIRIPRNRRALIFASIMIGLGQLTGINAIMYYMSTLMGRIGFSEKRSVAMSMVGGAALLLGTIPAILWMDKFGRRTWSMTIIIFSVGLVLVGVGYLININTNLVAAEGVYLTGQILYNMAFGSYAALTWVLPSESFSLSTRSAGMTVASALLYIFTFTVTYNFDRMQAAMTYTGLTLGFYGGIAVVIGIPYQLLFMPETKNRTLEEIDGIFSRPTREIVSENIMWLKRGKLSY
Assay: inhibition of [U-14C]fructose uptake; extracellular alkalinisation on sorbose pulse
Format: cell-based
Settings: competitor of labelled fructose; 10 mM sorbose, 25 °C, pH 5 in the proton symport assay; D / L form not stated

OCC1(O)OC[C@H](O)[C@@H](O)[C@@H]1O (stereo partly shown) [sorbose]
inhibition of [U-14C]fructose uptake; extracellular alkalinisation on sorbose pu: transport of radioactive fructose by ZrFsy1 was inhibited by sorbose but not by glucose
